From publication PMC8661032, “Broad-Spectrum Antibacterial Peptide Kills Extracellular and Intracellular Bacteria Without Affecting Epithelialization” (Frontiers in Microbiology, 2021) come the findings set out here.

In brackets after ≈: the same amount, converted by molar mass. Residues, ends and D or L forms follow the SMILES beside them.

In one data set the test system is S. aureus. The data set can be described thus: microbe, parasite or virus in culture. The conditions noted are these: for MIC: CAMHB, 24 h, three independent experiments. As to the method:
(§1) Briefly, bacterial colonies from blood agar plates were suspended and grown in Cation-Adjusted Mueller-Hinton Broth (CAMHB, […] Ca^2+, […] Mg^2+). The bacterial suspension was adjusted to 0.5 McFarland standard (∼1 × 10^8 colony-forming units (CFU)/ml) and serial diluted 1:200 in CAMHB (∼5 × 10^5 CFU/mL). […] The suspension was plated out on blood agar plates to confirm the CFU/ml. Both the microtiter plates and the blood agar plates were incubated at 37°C for 24 h.

Data set [1] concerns E. coli. The experiment in a line: microbe, parasite or virus in culture. The conditions noted are these: for MIC: Escherichia coli; for MIC E. coli: K-12 MG1655, CLSI broth microdilution, CAMHB, 37°C, visible growth, net peptide concentration. As to the method:
as §1
(In general: In broth dilution the organism is exposed to a series of concentrations in liquid medium.)

The subject of a further data set is K. pneumoniae. The data set can be described thus: microbe, parasite or virus in culture. The conditions noted are these: for MIC: Klebsiella pneumoniae. On the procedure:
as §1

Another data set relates to A. baumannii. The experiment in a line: microbe, parasite or virus in culture. The conditions noted are these: for MIC: Acinetobacter baumannii. On the procedure: as §1
The subject of the next data set is P. aeruginosa. The data set can be described thus: microbe, parasite or virus in culture. The settings on record: for MIC: Pseudomonas aeruginosa. On the procedure: as §1
For data set [2], the system named is S. epidermidis MRSE (SO-SEP9-1). The settings on record: SO-SEP9-1, 24 h. On the procedure: as §1
For data set [3], the system named is E. coli. The data set can be described thus: Rifampicin (RifR) mutagenesis assay after UV-C. The format is cell-based, Escherichia coli. On the procedure: The rifampicin (Rif^R) mutagenesis assay was performed as described ([Nedal et al., 2020]). Briefly, an overnight culture of E. coli was diluted 1:1,000 and grown until an OD600 of 0.01. APIM-peptides (20 μg/ml) were added to LB media with glass beads (for uniform distribution of APIM-peptides) and incubated for 30 min at 37°C. The pellets were next collected, resuspended in 500 μl PBS, and exposed to UV-C (20 mJ/cm^2) in a six-well plate at 4°C. The unexposed bacteria (-UV) were otherwise handled exactly like the UV-exposed bacteria. Next, the cells were resuspended in LB media and incubated in a rotary shaker at 37°C at 250 rpm for 2 h before being harvested, diluted, and plated on LB with soft agar with and without rifampicin (100 μg/ml). Mutation frequency, Rif^R/10^8, is obtained as follows: (number of colonies on the rifampicin plate (Rif^R)/(number of colonies on LB plates without antibiotics), per milliliter of bacterial suspension. […]
mutagenesis in E. coli more efficiently than the other peptide variants.
Increase in mutation frequencies after treatment with UV-C (20 mJ/cm2) relative to spontaneous mutations frequencies using the RifR assay were determined. This increase is set to 100% for untreated control, and % reduction after addition of peptides 1-5 (20 μg/mL) are shown. Mean ± SD from three independent experiments. * p<0.05, ** p<0.005

A further data set relates to HEK293 cells. As to the method:
HEK293 cells (6,000 cells/well) were seeded in 96-well microtiter plates. After 4 h, APIM-peptides (12–48 μg/ml) were added, and the cells were incubated without change of media for up to 4 days. Viability was measured using the 3-(4,5-dimethylthiazol-2-yl)-2,5-diphenyltetrazolium bromide (MTT) assay as described ([Gilljam et al., 2009]).
(1 picture or pasted object on this page, not shown here)

For data set [4], the system named is E. coli. The experiment in a line: Growth inhibition assay (OD600 over 24 h). Also on record: Reduction of viability E. coli (60 μg/ml): key to the marks not given beside the values. The format is cell-based, Escherichia coli. The conditions noted are these: 60 μg/ml peptide, LB medium, OD600 every hour over 24 h, relative to untreated control. On the procedure:
An overnight culture of Escherichia coli was diluted 1:100 in Luria-Bertani (LB) medium and allowed to grow until an optical density (OD) at 600 nm (OD600) of 0.06–0.1. APIM-peptides were prepared by serial dilution in Milli-Q H2O and kept at 4°C. Fresh LB medium (60 μl) was added to a flat-bottom microtiter plate. The bacterial suspension was diluted 1:100 in LB, and 75 μl of this suspension was added to the wells. Finally, 15 μl of APIM-peptide solution (to final concentrations 60, 120, and 240 μg/ml) or distilled water (positive control) was added to the wells, reaching a total volume of 150 μl per well. Data are presented only for the dose that separated the effect of the different peptides, i.e., 60 μg/ml. A blank sterile medium was used as negative control. The plates were incubated with shaking at 510 rpm at 37°C inside a plate reader (TECAN, Spark®), and OD was read every hour over a period of 24 h.
The MIC for E. coli in LB medium is higher than that in CAMHB; thus, concentrations higher than the MIC given in Table 2 are used in the growth inhibition and mutagenesis assays. […]
E. coli. Growth of E. coli in LB medium over 24 hours (Optical Density (OD) 600 nm) after addition
of APIM-peptide variants 1-5 (60 µg/mL) at time t=0 (see Table 2). Negative (-) control is no
bacteria added, positive (+) control is untreated bacteria.
highest inhibition of growth.
control (black filled line).

The mark [5] stands for this setting: Staphylococcus aureus, ATCC29213, 24 h, Reference strain ATCC 29213.
The mark [6] stands for this setting: Staphylococcus aureus, MRSA, Clinical isolate SO-SAU19-1 (MRSA).
[7] abbreviates: SO-ECO19-1 (ESBL-CARB-A(CTX-M-24)/D(OXA-48)).

As for `CO[C@@]1(NC(=O)Cc2cccs2)C(=O)N2C(C(=O)O)=C(COC(N)=O)CS[C@@H]21` [Cefoxitin, cefoxitin], the “Combination effect with 0.5× MIC betatide” value (from here on “Combination effect”) in the data set on S. aureus (ATCC 29213) is recorded as “None”; in the data set on S. aureus (SO-SAU19-1 (MRSA)), “Additive 2×”. Besides, the MIC is 4 µg/mL (≈ 9.36 µM) in the data set with S. aureus (setting [5]) and 32 µg/mL (≈ 74.9 µM) in the data set with S. aureus (setting [6]).

On to `CO/N=C(\C(=O)N[C@@H]1C(=O)N2C(C(=O)O)=C(CSc3nc(=O)c(=O)[nH]n3C)CS[C@H]12)c1csc(N)n1` [Ceftriaxone, ceftriaxone], for which the MIC in the data set with E. coli [1] (24 h) was 1020 µg/mL (≈ 1850 µM); against E. coli [1] (MG1655, 24 h) it was 0.06 µg/mL (≈ 0.108 µM). For the same molecule, the entries for the “Combination effect” value with E. coli [1] (MG1655) and with E. coli [1] (setting [7]) were “None” and “Additive 4×”, respectively.

Take `CCC[C@@H]1C[C@@H](C(=O)N[C@@H]([C@H]2O[C@H](SC)[C@H](O)[C@@H](O)[C@H]2O)[C@H](C)Cl)N(C)C1` [Clindamycin, clindamycin]: the “Combination effect” value in the data set with S. aureus (ATCC 29213) and in the data set on S. aureus (SO-SAU19-1 (MRSA)) was “Additive 2×” throughout. Also, the MIC stood at 0.25 µg/mL (≈ 0.588 µM) with S. aureus (setting [5]) and 2050 µg/mL (≈ 4820 µM) in the data set on S. aureus (setting [6]).

Take `C[C@@H](O)[C@H]1C(=O)N2C(C(=O)O)=C(S[C@@H]3CN[C@H](C(=O)Nc4cccc(C(=O)O)c4)C3)[C@H](C)[C@H]12` [Ertapenem, ertapenem]: the “Combination effect” value in the data set on K. pneumoniae (ATCC 13883) is on record as “Additive 4×”; with K. pneumoniae (SO-KPN19-1 (ESBL-CARBA-D)) it was “Additive 2×”; with E. coli [1] (MG1655), “None”; in the data set on E. coli [1] (setting [7]) it was “Additive 2×”. The MIC in the data set on K. pneumoniae (24 h) was 32 µg/mL (≈ 67.3 µM); against K. pneumoniae (ATCC13883, 24 h) it was 0.03 µg/mL (≈ 0.0631 µM); with E. coli [1] (24 h), 64 µg/mL (≈ 135 µM); with E. coli [1] (MG1655, 24 h), 0.06 µg/mL (≈ 0.126 µM).

Regarding `CC(=O)O[C@H]1C[C@@]2(C)[C@@H](C[C@@H](O)[C@H]3[C@@]4(C)CC[C@@H](O)[C@@H](C)[C@@H]4CC[C@@]32C)/C1=C(\CCC=C(C)C)C(=O)O` [Fusidic acid, fusidic acid], the “Combination effect” value in the data set on S. aureus (ATCC 29213) is “Additive, 2×”; with S. aureus (SO-SAU19-1 (MRSA)), “Additive 8×”; in the data set on S. aureus (SO-SAU 19-2 (FR-MRSA)), “Additive 2×”; in the data set with S. aureus (SO-SAU 19-3 (FR-MRSA)), “Additive 4×”; in the data set on S. aureus (SO-SAU 19-4 (FR-MRSA)), “Additive 2×”. The MIC worked out at 8 µg/mL (≈ 15.5 µM) against S. aureus (SO-SAU 19-4 (FR-MRSA)); 0.25 µg/mL (≈ 0.484 µM) with S. aureus (setting [5]); 0.25 µg/mL (≈ 0.484 µM) in the data set with S. aureus (setting [6]); 8 µg/mL (≈ 15.5 µM) in the data set on S. aureus (Staphylococcus aureus, MRSA, SO-SAU 19-2 (FR-MRSA)). Further, in the data set with S. aureus (fusidic acid-sensitive MRSA strain), the “reduction in MIC of fusidic acid when combined with 0.5× MIC betatide” value was found to be 8 ×.

On to `C[C@@H](O)[C@H]1C(=O)N2C(C(=O)O)=C(S[C@@H]3CN[C@H](C(=O)N(C)C)C3)[C@H](C)[C@H]12` [Meropenem, meropenem], for which the “Combination effect” value with A. baumannii (ATCC 19606) is on record as “None”; in the data set with A. baumannii (SO-ABA19-1 (ESBL-CARBA-D)), “None”; with P. aeruginosa (ATCC 27853), “None”; in the data set with P. aeruginosa (SO-PAE19-1 (multidrug resistant)), “Additive 2×”. Moreover, the MIC in the data set on A. baumannii (24 h) amounted to 512 µg/mL (≈ 1340 µM); against A. baumannii (ATCC19606, 24 h) it was 4 µg/mL (≈ 10.4 µM); in the data set with P. aeruginosa (24 h), 64 µg/mL (≈ 167 µM); with P. aeruginosa (ATCC27853, 24 h) it was 0.5 µg/mL (≈ 1.3 µM).

As for `COc1cccc(OC)c1C(=O)N[C@@H]1C(=O)N2[C@@H]1SC(C)(C)[C@@H]2C(=O)O` [Methicillin, methicillin], the “Combination effect” value with S. aureus (ATCC 29213) is “Additive 2×”; in the data set on S. aureus (SO-SAU19-1 (MRSA)) it was “Additive 4×”. In addition, the MIC turned out to be 1 µg/mL (≈ 2.63 µM) against S. aureus (setting [5]) and 8 µg/mL (≈ 21 µM) with S. aureus (setting [6]).

Take `CC[C@H](C)[C@H](NC(=O)CNC(=O)[C@H](CCCCN)NC(=O)[C@@H](NC(=O)[C@H](CC(C)C)NC(=O)[C@H](Cc1c[nH]c2ccccc12)NC(=O)[C@H](CCCNC(=N)N)NC(=O)[C@H](CC(=O)O)NC(=O)[C@H](CCSC)NC(C)=O)C(C)C)C(=O)N[C@@H](CC(C)C)C(=O)N[C@@H](CCC(N)=O)C(=O)N[C@@H](Cc1c[nH]c2ccccc12)C(=O)N[C@@H](CCCNC(=N)N)C(=O)N[C@@H](CCCCN)C(=O)N[C@H](C(=O)N[C@@H](CCCNC(=N)N)C(=O)N[C@@H](CCCNC(=N)N)C(=O)N[C@@H](CCCNC(=N)N)C(=O)N[C@@H](CCCNC(=N)N)C(=O)N[C@@H](CCCNC(=N)N)C(=O)N[C@@H](CCCNC(=N)N)C(=O)N[C@@H](CCCNC(=N)N)C(=O)N[C@@H](CCCNC(=N)N)C(=O)N[C@@H](CCCNC(=N)N)C(=O)N[C@@H](CCCNC(=N)N)C(N)=O)[C@@H](C)CC` [Peptide 3] (Ac-MDRWLVKGILQWRKIRRRRRRRRRR-NH2): in [2], the “MIC S. epidermidis MRSE” value was determined as 16 µg/mL (≈ 4.51 µM). Also, the “UV-induced mutation frequencies relative to control” value in the data set on E. coli [3] (20 μg/mL, UV-C 20 mJ/cm2, RifR assay, three independent experiments) was “significantly reduced”. In addition, in the data set on E. coli [3] (20 μg/ml peptide, UV-C 20 mJ/cm^2, RifR assay, relative to untreated control), the “Reduction of mutation frequency E. coli (20 μg/ml)” value is “++”. The “MIC E. coli” value against E. coli [1] (24 h) is 32 µg/mL (≈ 9.03 µM). Besides, the “Reduction of viability HEK293 (24 μg/ml)” value in the data set with HEK293 cells was “+”.

Take `CC[C@H](C)[C@H](NC(=O)CNC(=O)[C@H](CCCCN)NC(=O)[C@@H](NC(=O)[C@H](CC(C)C)NC(=O)[C@H](Cc1c[nH]c2ccccc12)NC(=O)[C@H](CCCNC(=N)N)NC(=O)[C@H](CC(=O)O)NC(=O)[C@H](CCSC)NC(C)=O)C(C)C)C(=O)N[C@@H](CC(C)C)C(=O)N[C@@H](CCC(N)=O)C(=O)N[C@@H](Cc1c[nH]c2ccccc12)C(=O)N[C@@H](CCCNC(=N)N)C(=O)N[C@@H](CCCCN)C(=O)N[C@H](C(=O)N[C@@H](CCCNC(=N)N)C(=O)N[C@@H](CCCNC(=N)N)C(=O)N[C@@H](CCCNC(=N)N)C(=O)N[C@@H](CCCNC(=N)N)C(=O)N[C@@H](CCCNC(=N)N)C(=O)N[C@@H](CCCNC(=N)N)C(=O)N[C@@H](CCCNC(=N)N)C(=O)N[C@@H](CCCNC(=N)N)C(=O)N[C@@H](CCCNC(=N)N)C(N)=O)[C@@H](C)CC` [Peptide 4] (Ac-MDRWLVKGILQWRKIRRRRRRRRR-NH2): the “Reduction of viability E. coli (60 μg/ml)” value in the data set with E. coli [4] was “++”. In addition, the “MIC S. epidermidis MRSE” value in data set [2] is 16 µg/mL (≈ 4.72 µM). Moreover, the “MIC E. coli” value against E. coli [1] (24 h) is 32 µg/mL (≈ 9.44 µM).
